Experimental data reported in patent US6869589B1, “Cryptate compounds and methods for diagnosis and therapy” (Australian Nuclear Science & Technology Organization, priority 1999, dated 2005).

Test: Biodistribution of ^64Cu complexes in balb/c mice
Protocol: The biodistribution of the ^64Cu complexes of compounds (1), (3) and (4) (0.10 ml intravenous injection) were evaluated in balb/c mice (5 animals per time point) at 3, 5, 10, 15, 20 and 30 minute time intervals. Biodistribution studies were performed in duplicate.

In the case of `Nc1ccc(CNC23CNCCNCC(N)(CNCCNC2)CNCCNC3)cc1.[64Cu+2]` [^64Cu-labelled compound (3)], the “% injected dose per gram” value (BLADDER, 3 MIN) is reported as 11.36 % INJECTED DOSE PER GRAM, the “% injected dose per gram” value (BLADDER, 5 MIN) is reported as 12.31 % INJECTED DOSE PER GRAM and the “% injected dose per gram” value (BLADDER, 10 MIN) is reported as 14.36 % INJECTED DOSE PER GRAM. The “% injected dose per gram” value (BLADDER, 15 MIN) was 10.54 % INJECTED DOSE PER GRAM, the “% injected dose per gram” value (BLADDER, 20 MIN) was 13.45 % INJECTED DOSE PER GRAM and the “% injected dose per gram” value (BLADDER, 30 MIN) was 2.74 % INJECTED DOSE PER GRAM. For the same molecule, the “% injected dose per gram” value (BLOOD, 3 MIN) was 7.74 % INJECTED DOSE PER GRAM, the “% injected dose per gram” value (BLOOD, 5 MIN) was 8.19 % INJECTED DOSE PER GRAM and the “% injected dose per gram” value (BLOOD, 10 MIN) was 5.23 % INJECTED DOSE PER GRAM. The “% injected dose per gram” value (BLOOD, 15 MIN) was 4.39 % INJECTED DOSE PER GRAM, the “% injected dose per gram” value (BLOOD, 20 MIN) was 3.05 % INJECTED DOSE PER GRAM and the “% injected dose per gram” value (BLOOD, 30 MIN) was 1.25 % INJECTED DOSE PER GRAM. For the same molecule, the “% injected dose per gram” value (BONE, 3 MIN) was 1.68 % INJECTED DOSE PER GRAM, the “% injected dose per gram” value (BONE, 5 MIN) was 2.11 % INJECTED DOSE PER GRAM and the “% injected dose per gram” value (BONE, 10 MIN) was 1.29 % INJECTED DOSE PER GRAM. The “% injected dose per gram” value (BONE, 15 MIN) was 1.36 % INJECTED DOSE PER GRAM, the “% injected dose per gram” value (BONE, 20 MIN) was 1.11 % INJECTED DOSE PER GRAM and the “% injected dose per gram” value (BONE, 30 MIN) was 0.72 % INJECTED DOSE PER GRAM. For the same molecule, the “% injected dose per gram” value (GIT, 3 MIN) was 2.66 % INJECTED DOSE PER GRAM, the “% injected dose per gram” value (GIT, 5 MIN) was 2.88 % INJECTED DOSE PER GRAM and the “% injected dose per gram” value (GIT, 10 MIN) was 1.80 % INJECTED DOSE PER GRAM. For the same molecule, the “% injected dose per gram” value (GIT, 15 MIN) was 2.92 % INJECTED DOSE PER GRAM, the “% injected dose per gram” value (GIT, 20 MIN) was 1.05 % INJECTED DOSE PER GRAM and the “% injected dose per gram” value (GIT, 30 MIN) was 0.55 % INJECTED DOSE PER GRAM. The “% injected dose per gram” value (HEART, 3 MIN) was 2.79 % INJECTED DOSE PER GRAM, the “% injected dose per gram” value (HEART, 5 MIN) was 3.00 % INJECTED DOSE PER GRAM and the “% injected dose per gram” value (HEART, 10 MIN) was 2.03 % INJECTED DOSE PER GRAM. The “% injected dose per gram” value (HEART, 15 MIN) was 1.56 % INJECTED DOSE PER GRAM, the “% injected dose per gram” value (HEART, 20 MIN) was 1.24 % INJECTED DOSE PER GRAM and the “% injected dose per gram” value (HEART, 30 MIN) was 0.50 % INJECTED DOSE PER GRAM. The “% injected dose per gram” value (KIDNEY, 3 MIN) was 22.41 % INJECTED DOSE PER GRAM, the “% injected dose per gram” value (KIDNEY, 5 MIN) was 18.99 % INJECTED DOSE PER GRAM and the “% injected dose per gram” value (KIDNEY, 10 MIN) was 13.41 % INJECTED DOSE PER GRAM. The “% injected dose per gram” value (KIDNEY, 15 MIN) was 10.26 % INJECTED DOSE PER GRAM, the “% injected dose per gram” value (KIDNEY, 20 MIN) was 9.98 % INJECTED DOSE PER GRAM and the “% injected dose per gram” value (KIDNEY, 30 MIN) was 5.95 % INJECTED DOSE PER GRAM. The “% injected dose per gram” value (LIVER, 3 MIN) was 1.94 % INJECTED DOSE PER GRAM, the “% injected dose per gram” value (LIVER, 5 MIN) was 2.00 % INJECTED DOSE PER GRAM and the “% injected dose per gram” value (LIVER, 10 MIN) was 1.46 % INJECTED DOSE PER GRAM. The “% injected dose per gram” value (LIVER, 15 MIN) was 1.24 % INJECTED DOSE PER GRAM, the “% injected dose per gram” value (LIVER, 20 MIN) was 1.04 % INJECTED DOSE PER GRAM and the “% injected dose per gram” value (LIVER, 30 MIN) was 0.72 % INJECTED DOSE PER GRAM. For the same molecule, the “% injected dose per gram” value (LUNGS, 3 MIN) was 5.48 % INJECTED DOSE PER GRAM, the “% injected dose per gram” value (LUNGS, 5 MIN) was 5.74 % INJECTED DOSE PER GRAM and the “% injected dose per gram” value (LUNGS, 10 MIN) was 4.00 % INJECTED DOSE PER GRAM. The “% injected dose per gram” value (LUNGS, 15 MIN) was 3.25 % INJECTED DOSE PER GRAM, the “% injected dose per gram” value (LUNGS, 20 MIN) was 2.59 % INJECTED DOSE PER GRAM and the “% injected dose per gram” value (LUNGS, 30 MIN) was 1.13 % INJECTED DOSE PER GRAM. The “% injected dose per gram” value (MUSCLE, 3 MIN) was 1.98 % INJECTED DOSE PER GRAM, the “% injected dose per gram” value (MUSCLE, 5 MIN) was 3.17 % INJECTED DOSE PER GRAM and the “% injected dose per gram” value (MUSCLE, 10 MIN) was 1.73 % INJECTED DOSE PER GRAM. The “% injected dose per gram” value (MUSCLE, 15 MIN) was 2.40 % INJECTED DOSE PER GRAM, the “% injected dose per gram” value (MUSCLE, 20 MIN) was 2.13 % INJECTED DOSE PER GRAM and the “% injected dose per gram” value (MUSCLE, 30 MIN) was 0.50 % INJECTED DOSE PER GRAM. The “% injected dose per gram” value (SKIN, 3 MIN) was 5.63 % INJECTED DOSE PER GRAM, the “% injected dose per gram” value (SKIN, 5 MIN) was 6.18 % INJECTED DOSE PER GRAM and the “% injected dose per gram” value (SKIN, 10 MIN) was 4.86 % INJECTED DOSE PER GRAM. The “% injected dose per gram” value (SKIN, 15 MIN) was 4.49 % INJECTED DOSE PER GRAM, the “% injected dose per gram” value (SKIN, 20 MIN) was 3.41 % INJECTED DOSE PER GRAM and the “% injected dose per gram” value (SKIN, 30 MIN) was 1.45 % INJECTED DOSE PER GRAM. For the same molecule, the “% injected dose per gram” value (SPLEEN, 3 MIN) was 1.96 % INJECTED DOSE PER GRAM, the “% injected dose per gram” value (SPLEEN, 5 MIN) was 2.01 % INJECTED DOSE PER GRAM and the “% injected dose per gram” value (SPLEEN, 10 MIN) was 1.26 % INJECTED DOSE PER GRAM. For the same molecule, the “% injected dose per gram” value (SPLEEN, 15 MIN) was 1.09 % INJECTED DOSE PER GRAM, the “% injected dose per gram” value (SPLEEN, 20 MIN) was 0.93 % INJECTED DOSE PER GRAM and the “% injected dose per gram” value (SPLEEN, 30 MIN) was 0.39 % INJECTED DOSE PER GRAM. The “% injected dose per gram” value (STOMACH, 3 MIN) was 2.69 % INJECTED DOSE PER GRAM, the “% injected dose per gram” value (STOMACH, 5 MIN) was 3.11 % INJECTED DOSE PER GRAM and the “% injected dose per gram” value (STOMACH, 10 MIN) was 2.35 % INJECTED DOSE PER GRAM. For the same molecule, the “% injected dose per gram” value (STOMACH, 15 MIN) was 1.91 % INJECTED DOSE PER GRAM, the “% injected dose per gram” value (STOMACH, 20 MIN) was 1.54 % INJECTED DOSE PER GRAM and the “% injected dose per gram” value (STOMACH, 30 MIN) was 0.60 % INJECTED DOSE PER GRAM.
